Reference: ChEMBL document CHEMBL1667805, “Synthesis of new C5-(1-substituted-1,2,3-triazol-4 or 5-yl)-2'-deoxyuridines and their antiviral evaluation” (Eur J Med Chem, 2011)
Active and inactive are the calls of the source. The rule behind the calls is not given here.

Experiments:
[1] = system: Mammalian orthoreovirus 1; assay type: functional, organism-based; conditions: Vero
Sindbis virus = assay type: functional, organism-based; conditions: Vero
Punta Toro virus = assay type: functional, organism-based; conditions: Vero
Coxsackievirus B4 = assay type: functional, organism-based; conditions: HeLa
[2] = system: Vesicular stomatitis virus; assay type: functional, organism-based; conditions: HeLa
[3] = system: Human immunodeficiency virus 1; assay: Antiviral activity against HIV1 3B infected in human […] cells assessed as virus-induced CEM giant cell formation after 4 days; assay type: functional, organism-based
[4] = system: Human immunodeficiency virus 2; assay: Antiviral activity against HIV2 ROD infected in human […] cells assessed as virus-induced CEM giant cell formation after 4 days; assay type: functional, organism-based; conditions: ISOLATE ROD
[5] = system: Vesicular stomatitis virus; assay type: functional, organism-based; conditions: MDCK
Influenza A virus [6] = assay type: functional, organism-based; conditions: H1N1, MDCK
Influenza A virus [7] = assay type: functional, organism-based; conditions: H3N2, MDCK
Influenza B virus = assay type: functional, organism-based; conditions: MDCK
Human respirovirus 3 = assay type: functional, organism-based; conditions: Vero
L1210 = assay: cells; conditions: Mus musculus, L1210, 48 h
CCRF-CEM = assay: cells; conditions: Homo sapiens, 72 h
HeLa = assay: cells; conditions: Homo sapiens, 96 h
in vitro = conditions: human, HEL cells
Human alphaherpesvirus 1 [8] = assay: microbe, parasite or virus in culture; conditions: Human alphaherpesvirus 1, KOS, HEL
Human alphaherpesvirus 1 [9] = assay: microbe, parasite or virus in culture; conditions: Human alphaherpesvirus 1, KOS, HEL; remark: listed apart in the source
Human alphaherpesvirus 2 = assay: microbe, parasite or virus in culture; conditions: Human alphaherpesvirus 2, strain G, HEL
Human alphaherpesvirus 3 [10] = assay: microbe, parasite or virus in culture; conditions: Human alphaherpesvirus 3, strain Oka vaccine, HEL
Human alphaherpesvirus 3 [11] = assay: microbe, parasite or virus in culture; conditions: Human alphaherpesvirus 3, 07-1, HEL
Human betaherpesvirus 5 [12] = assay: microbe, parasite or virus in culture; conditions: Human betaherpesvirus 5, AD169, HEL
Human betaherpesvirus 5 [13] = assay: microbe, parasite or virus in culture; conditions: Human betaherpesvirus 5, Davis, HEL
Vaccinia virus = assay: microbe, parasite or virus in culture; conditions: Orthopoxvirus vaccinia, HEL

## CC(C)c1ccc(-n2cc(-c3cn([C@H]4C[C@H](O)[C@@H](CO)O4)c(=O)[nH]c3=O)nn2)cc1
[1]
  inhibition: inactive
Sindbis virus
  inhibition: inactive
Punta Toro virus
  inhibition: inactive
Coxsackievirus B4
  inhibition: inactive
[2]
  inhibition: inactive
[3]
  inhibition: inactive
[4]
  inhibition: inactive
[5]
  inhibition: inactive
Influenza A virus [6]
  inhibition: inactive
Influenza A virus [7]
  inhibition: inactive
Influenza B virus
  inhibition: inactive
Human respirovirus 3
  inhibition: inactive
L1210
  IC50: 29 µM
CCRF-CEM
  IC50: 22 µM
HeLa
  IC50: 6.2 µM
In vitro
  CC50 at 72 h: 7.4 µM
  MCC at 72 h: > 240 µM
Human alphaherpesvirus 1 [8]
  EC50: > 10 µM
Human alphaherpesvirus 1 [9]
  EC50: > 10 µM
Human alphaherpesvirus 2
  EC50: > 10 µM
Human alphaherpesvirus 3 [10]
  EC50: 20 µM
Human alphaherpesvirus 3 [11]
  EC50: 97 µM
Human betaherpesvirus 5 [12]
  EC50: 240 µM
Human betaherpesvirus 5 [13]
  EC50: 185 µM
Vaccinia virus
  EC50: > 10 µM

## CCCCc1ccc(-n2cc(-c3cn([C@H]4C[C@H](O)[C@@H](CO)O4)c(=O)[nH]c3=O)nn2)cc1
[1]
  inhibition: inactive
Sindbis virus
  inhibition: inactive
Punta Toro virus
  inhibition: inactive
Coxsackievirus B4
  inhibition: inactive
[2]
  inhibition: inactive
[3]
  inhibition: inactive
[4]
  inhibition: inactive
[5]
  inhibition: inactive
Influenza A virus [6]
  inhibition: inactive
Influenza A virus [7]
  inhibition: inactive
Influenza B virus
  inhibition: inactive
Human respirovirus 3
  inhibition: inactive
L1210
  IC50: 15 µM
CCRF-CEM
  IC50: 60 µM
HeLa
  IC50: 23 µM
In vitro
  CC50 at 72 h: 147 µM
  MCC at 72 h: 230 µM
Human alphaherpesvirus 1 [8]
  EC50: > 50 µM
Human alphaherpesvirus 1 [9]
  EC50: > 50 µM
Human alphaherpesvirus 2
  EC50: > 50 µM
Human alphaherpesvirus 3 [10]
  EC50: > 50 µM
Human alphaherpesvirus 3 [11]
  EC50: > 50 µM
Human betaherpesvirus 5 [12]
  EC50: > 50 µM
Human betaherpesvirus 5 [13]
  EC50: > 50 µM
Vaccinia virus
  EC50: > 50 µM

## O=c1[nH]c(=O)n([C@H]2C[C@H](O)[C@@H](CO)O2)cc1-c1cn(-c2ccc(Oc3ccccc3)cc2)nn1
[1]
  inhibition: inactive
Sindbis virus
  inhibition: inactive
Punta Toro virus
  inhibition: inactive
Coxsackievirus B4
  inhibition: inactive
[2]
  inhibition: inactive
[3]
  inhibition: inactive
[4]
  inhibition: inactive
[5]
  inhibition: inactive
Influenza A virus [6]
  inhibition: inactive
Influenza A virus [7]
  inhibition: inactive
Influenza B virus
  inhibition: inactive
Human respirovirus 3
  inhibition: inactive
L1210
  IC50: 0.5 µM
CCRF-CEM
  IC50: 0.8 µM
HeLa
  IC50: 0.28 µM
In vitro
  CC50 at 72 h: 0.45 µM
  MCC at 72 h: 130 µM
Human alphaherpesvirus 1 [8]
  EC50: 31 µM
Human alphaherpesvirus 1 [9]
  EC50: 8.6 µM
Human alphaherpesvirus 2
  EC50: ≥ 43 µM
Human alphaherpesvirus 3 [10]
  EC50: 1.4 µM
Human alphaherpesvirus 3 [11]
  EC50: 5.7 µM
Human betaherpesvirus 5 [12]
  EC50: 19.4 µM
Human betaherpesvirus 5 [13]
  EC50: 16.4 µM
Vaccinia virus
  EC50: 4.3 µM

## O=c1[nH]c(=O)n([C@H]2C[C@H](O)[C@@H](CO)O2)cc1-c1cn(-c2ccc([N+](=O)[O-])cc2)nn1
[1]
  inhibition: inactive
Sindbis virus
  inhibition: inactive
Punta Toro virus
  inhibition: inactive
Coxsackievirus B4
  inhibition: inactive
[2]
  inhibition: inactive
[3]
  inhibition: inactive
[4]
  inhibition: inactive
[5]
  inhibition: inactive
Influenza A virus [6]
  inhibition: inactive
Influenza A virus [7]
  inhibition: inactive
Influenza B virus
  inhibition: inactive
Human respirovirus 3
  inhibition: inactive
L1210
  IC50: > 100 µM
CCRF-CEM
  IC50: > 100 µM
HeLa
  IC50: > 100 µM
In vitro
  CC50 at 72 h: 136 µM
  MCC at 72 h: 240 µM
Human alphaherpesvirus 1 [8]
  EC50: > 50 µM
Human alphaherpesvirus 1 [9]
  EC50: > 50 µM
Human alphaherpesvirus 2
  EC50: > 50 µM
Human alphaherpesvirus 3 [10]
  EC50: > 50 µM
Human alphaherpesvirus 3 [11]
  EC50: > 50 µM
Human betaherpesvirus 5 [12]
  EC50: > 50 µM
Human betaherpesvirus 5 [13]
  EC50: > 50 µM
Vaccinia virus
  EC50: > 50 µM

## CC(C)(C)c1ccc(-n2cc(-c3cn([C@H]4C[C@H](O)[C@@H](CO)O4)c(=O)[nH]c3=O)nn2)cc1
[1]
  inhibition: inactive
Sindbis virus
  inhibition: inactive
Punta Toro virus
  inhibition: inactive
Coxsackievirus B4
  inhibition: inactive
[2]
  inhibition: inactive
[3]
  inhibition: inactive
[4]
  inhibition: inactive
[5]
  inhibition: inactive
Influenza A virus [6]
  inhibition: inactive
Influenza A virus [7]
  inhibition: inactive
Influenza B virus
  inhibition: inactive
Human respirovirus 3
  inhibition: inactive
L1210
  IC50: 15 µM
CCRF-CEM
  IC50: 11 µM
HeLa
  IC50: 9 µM
In vitro
  CC50 at 72 h: 12.4 µM
  MCC at 72 h: 230 µM
Human alphaherpesvirus 1 [8]
  EC50: > 50 µM
Human alphaherpesvirus 1 [9]
  EC50: > 50 µM
Human alphaherpesvirus 2
  EC50: > 50 µM
Human alphaherpesvirus 3 [10]
  EC50: 7.7 µM
Human alphaherpesvirus 3 [11]
  EC50: 35 µM
Human betaherpesvirus 5 [12]
  EC50: > 50 µM
Human betaherpesvirus 5 [13]
  EC50: > 50 µM
Vaccinia virus
  EC50: 37 µM

## O=c1[nH]c(=O)n([C@H]2C[C@H](O)[C@@H](CO)O2)cc1-c1cn(-c2c(F)cccc2F)nn1
[1]
  inhibition: inactive
Sindbis virus
  inhibition: inactive
Punta Toro virus
  inhibition: inactive
Coxsackievirus B4
  inhibition: inactive
[2]
  inhibition: inactive
[3]
  inhibition: inactive
[4]
  inhibition: inactive
[5]
  inhibition: inactive
Influenza A virus [6]
  inhibition: inactive
Influenza A virus [7]
  inhibition: inactive
Influenza B virus
  inhibition: inactive
Human respirovirus 3
  inhibition: inactive
L1210
  IC50: 2.9 µM
CCRF-CEM
  IC50: 1.5 µM
HeLa
  IC50: 0.51 µM
In vitro
  CC50 at 72 h: 1.5 µM
  MCC at 72 h: ≥ 10 µM
Human alphaherpesvirus 1 [8]
  EC50: 36 µM
Human alphaherpesvirus 1 [9]
  EC50: 31 µM
Human alphaherpesvirus 2
  EC50: ≥ 50 µM
Human alphaherpesvirus 3 [10]
  EC50: 3.1 µM
Human alphaherpesvirus 3 [11]
  EC50: 6.1 µM
Human betaherpesvirus 5 [12]
  EC50: 29 µM
Human betaherpesvirus 5 [13]
  EC50: 18 µM
Vaccinia virus
  EC50: 38 µM

## O=c1[nH]c(=O)n([C@H]2C[C@H](O)[C@@H](CO)O2)cc1-c1cn(-c2ccc(Cl)cc2)nn1
[1]
  inhibition: inactive
Sindbis virus
  inhibition: inactive
Punta Toro virus
  inhibition: inactive
Coxsackievirus B4
  inhibition: inactive
[2]
  inhibition: inactive
[3]
  inhibition: inactive
[4]
  inhibition: inactive
[5]
  inhibition: inactive
Influenza A virus [6]
  inhibition: inactive
Influenza A virus [7]
  inhibition: inactive
Influenza B virus
  inhibition: inactive
Human respirovirus 3
  inhibition: inactive
L1210
  IC50: 14.8 µM
CCRF-CEM
  IC50: 13 µM
HeLa
  IC50: 4 µM
In vitro
  CC50 at 72 h: 7.4 µM
  MCC at 72 h: > 240 µM
Human alphaherpesvirus 1 [8]
  EC50: > 240 µM
Human alphaherpesvirus 1 [9]
  EC50: > 240 µM
Human alphaherpesvirus 2
  EC50: > 240 µM
Human alphaherpesvirus 3 [10]
  EC50: 41 µM
Human alphaherpesvirus 3 [11]
  EC50: 48 µM
Human betaherpesvirus 5 [12]
  EC50: > 240 µM
Human betaherpesvirus 5 [13]
  EC50: > 131 µM
Vaccinia virus
  EC50: > 240 µM

## O=c1[nH]c(=O)n([C@H]2C[C@H](O)[C@@H](CO)O2)cc1-c1cn(-c2ccccc2)nn1
[1]
  inhibition: inactive
Sindbis virus
  inhibition: inactive
Punta Toro virus
  inhibition: inactive
Coxsackievirus B4
  inhibition: inactive
[2]
  inhibition: inactive
[3]
  inhibition: inactive
[4]
  inhibition: inactive
[5]
  inhibition: inactive
Influenza A virus [6]
  inhibition: inactive
Influenza A virus [7]
  inhibition: inactive
Influenza B virus
  inhibition: inactive
Human respirovirus 3
  inhibition: inactive
L1210
  IC50: 204 µM
CCRF-CEM
  IC50: 75 µM
HeLa
  IC50: 56 µM
In vitro
  CC50 at 72 h: 270 µM
  MCC at 72 h: 270 µM
Human alphaherpesvirus 1 [8]
  EC50: > 50 µM
Human alphaherpesvirus 1 [9]
  EC50: > 50 µM
Human alphaherpesvirus 2
  EC50: > 50 µM
Human alphaherpesvirus 3 [10]
  EC50: > 270 µM
Human alphaherpesvirus 3 [11]
  EC50: > 270 µM
Human betaherpesvirus 5 [12]
  EC50: > 270 µM
Human betaherpesvirus 5 [13]
  EC50: > 270 µM
Vaccinia virus
  EC50: > 50 µM
